Test results: patent publication US20250282799A1, “SUBSTITUTED PYRIDO[4,3-d]PYRIMIDINES AS KRAS MODULATORS” (Alterome Therapeutics, Inc., priority 2023, published 2025)

Test system: KRAS G12V dependent lung adenocarcinoma cell line, NCI-H441
Assay: Cellular pERK (Thr202/Tyr204) FRET/HTRF assay
Assay type: cell-based
Settings: Homo sapiens, NCI-H441, cellular pERK (Thr202/Tyr204) HTRF, NCI-H441 cells
In short: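 NCI-H441 cells (KRAS G12V) were seeded and grown overnight at 37 °C, 5% CO2, then treated with compound in DMSO for 1 hr. Lysates were probed with a Eu3+-cryptate/d2 antibody sandwich against pERK1/2 Thr202/Tyr204 and read by HTRF at 665 nm; IC50 from curve fitting.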

Row | IC50 [µM] | SMILES
1 | 0.05 to 0.5 | [2H]C([2H])(Oc1nc(N2CC[C@@H](C#N)C[C@@H]3[C@H](F)[C@@H]32)c2cnc(-c3cc(N)cc4ccc(F)c(C#C)c34)c(F)c2n1)[C@@]12CCCN1C[C@H](F)C2 [Example 311, (1R,5S,7S,8S)-2-(7-(3-amino-8-ethynyl-7-fluoronaphthalen-1-yl)-8-fluoro-2-(((2R,7aS)-2-fluorotetrahydro-1H-pyrrolizin-7a(5H)-yl)methoxy-d2)pyrido[4,3-d]pyrimidin-4-yl)-8-fluoro-2-azabicyclo[5.1.0]octane-5-carbonitrile]
2 | < 0.05 | [2H]C([2H])(Oc1nc(N2CCOC[C@H]3[C@H](F)[C@H]32)c2cnc(-c3cccc4ccc(Cl)c(C#C)c34)c(F)c2n1)[C@@]12CCCN1C[C@H](F)C2 [Example 318, (1S,7S,8S)-2-(7-(7-chloro-8-ethynylnaphthalen-1-yl)-8-fluoro-2-(((2R,7aS)-2-fluorotetrahydro-1H-pyrrolizin-7a(5H)-yl)methoxy-d2)pyrido[4,3-d]pyrimidin-4-yl)-8-fluoro-5-oxa-2-azabicyclo[5.1.0]octane]
3 | < 0.05 | [2H]C([2H])(Oc1nc(N2CCOC[C@H]3[C@H](F)[C@H]32)c2cnc(-c3cccc4cccc(C#C)c34)c(F)c2n1)[C@@]12CCCN1C[C@H](F)C2 [Example 319, (1S,7S,8S)-2-(7-(8-ethynylnaphthalen-1-yl)-8-fluoro-2-(((2R,7aS)-2-fluorotetrahydro-1H-pyrrolizin-7a(5H)-yl)methoxy-d2)pyrido[4,3-d]pyrimidin-4-yl)-8-fluoro-5-oxa-2-azabicyclo[5.1.0]octane]
4 | < 0.05 | [2H]C([2H])(Oc1nc(N2CCOC[C@H]3[C@H](Cl)[C@H]32)c2cnc(-c3cccc4ccc(Cl)c(C#C)c34)c(F)c2n1)[C@@]12CCCN1C[C@H](F)C2 [Example 320, (1S,7S,8S)-8-chloro-2-(7-(7-chloro-8-ethynylnaphthalen-1-yl)-8-fluoro-2-(((2R,7aS)-2-fluorotetrahydro-1H-pyrrolizin-7a(5H)-yl)methoxy-d2)pyrido[4,3-d]pyrimidin-4-yl)-5-oxa-2-azabicyclo[5.1.0]octane]
5 | < 0.05 | C#Cc1c(Cl)ccc2cc(N)cc(-c3ncc4c(N5CCOC[C@H]6[C@H](Cl)[C@H]65)nc(OC[C@@H]5CCCN5C)nc4c3F)c12 [Example 321, 6-chloro-4-(4-((1S,7S,8S)-8-chloro-5-oxa-2-azabicyclo[5.1.0]octan-2-yl)-8-fluoro-2-(((S)-1-methylpyrrolidin-2-yl)methoxy)pyrido[4,3-d]pyrimidin-7-yl)-5-ethynylnaphthalen-2-amine]
6 | < 0.05 | C#Cc1cccc2cc(N)cc(-c3ncc4c(N5CCOC[C@H]6[C@H](Cl)[C@H]65)nc(OC[C@@H]5CCCN5C)nc4c3F)c12 [Example 322, 4-(4-((1S,7S,8S)-8-chloro-5-oxa-2-azabicyclo[5.1.0]octan-2-yl)-8-fluoro-2-(((S)-1-methylpyrrolidin-2-yl)methoxy)pyrido[4,3-d]pyrimidin-7-yl)-5-ethynylnaphthalen-2-amine]
7 | < 0.05 | [2H]C([2H])(Oc1nc(N2CCOC[C@H]3[C@H](F)[C@H]32)c2c(OC(C)C)nc(-c3cc(N)cc4ccc(F)c(C#C)c34)c(F)c2n1)[C@@]12CCCN1C[C@H](F)C2 [Example 323, 5-ethynyl-6-fluoro-4-(8-fluoro-4-((1S,7S,8S)-8-fluoro-5-oxa-2-azabicyclo[5.1.0]octan-2-yl)-2-(((2R,7aS)-2-fluorotetrahydro-1H-pyrrolizin-7a(5H)-yl)methoxy-d2)-5-isopropoxypyrido[4,3-d]pyrimidin-7-yl)naphthalen-2-amine]
8 | < 0.05 | [2H]C([2H])(Oc1nc(N2CCOC[C@H]3[C@H](F)[C@H]32)c2cnc(-c3cc(O)cc4ccc(C)c(C#C)c34)c(F)c2n1)[C@@]12CCCN1C[C@H](F)C2 [Example 324, 5-ethynyl-4-(8-fluoro-4-((1S,7S,8S)-8-fluoro-5-oxa-2-azabicyclo[5.1.0]octan-2-yl)-2-(((2R,7aS)-2-fluorotetrahydro-1H-pyrrolizin-7a(5H)-yl)methoxy-d2)pyrido[4,3-d]pyrimidin-7-yl)-6-methylnaphthalen-2-ol]
9 | < 0.05 | [2H]C([2H])(Oc1nc(N2CCOC[C@H]3[C@H](F)[C@H]32)c2cnc(-c3cccc4ccc(C)c(C#C)c34)c(F)c2n1)[C@@]12CCCN1C[C@H](F)C2 [Example 325, (1S,7S,8S)-2-(7-(8-ethynyl-7-methylnaphthalen-1-yl)-8-fluoro-2-(((2R,7aS)-2-fluorotetrahydro-1H-pyrrolizin-7a(5H)-yl)methoxy-d2)pyrido[4,3-d]pyrimidin-4-yl)-8-fluoro-5-oxa-2-azabicyclo[5.1.0]octane]
10 | 0.05 to 0.5 | C#Cc1c(Cl)ccc2cc(N)cc(-c3ncc4c(N5CCOC[C@@H]6[C@@H](Cl)[C@@H]65)nc(OC[C@@H]5CCCN5C)nc4c3F)c12 [Example 326, 6-chloro-4-(4-((1R,7R,8R)-8-chloro-5-oxa-2-azabicyclo[5.1.0]octan-2-yl)-8-fluoro-2-(((S)-1-methylpyrrolidin-2-yl)methoxy)pyrido[4,3-d]pyrimidin-7-yl)-5-ethynylnaphthalen-2-amine]
11 | 0.05 to 0.5 | C#Cc1cccc2cc(N)cc(-c3ncc4c(N5CCOC[C@@H]6[C@@H](Cl)[C@@H]65)nc(OC[C@@H]5CCCN5C)nc4c3F)c12 [Example 327, 4-(4-((1R,7R,8R)-8-chloro-5-oxa-2-azabicyclo[5.1.0]octan-2-yl)-8-fluoro-2-(((S)-1-methylpyrrolidin-2-yl)methoxy)pyrido[4,3-d]pyrimidin-7-yl)-5-ethynylnaphthalen-2-amine]
12 | 0.5 to 10 | [2H]C([2H])(Oc1nc(N2CCOC[C@H]3[C@H](F)[C@H]32)c2cc(C(F)(F)F)c(-c3cc(N)cc4ccc(F)c(C#C)c34)c(F)c2n1)[C@@]12CCCN1C[C@H](F)C2 [Example 328, 5-ethynyl-6-fluoro-4-(8-fluoro-4-((1S,7S,8S)-8-fluoro-5-oxa-2-azabicyclo[5.1.0]octan-2-yl)-2-(((2R,7aS)-2-fluorotetrahydro-1H-pyrrolizin-7a(5H)-yl)methoxy-d2)-6-(trifluoromethyl)quinazolin-7-yl)naphthalen-2-amine]
13 | < 0.05 | [2H]C([2H])(Oc1nc(N2CCOC[C@H]3[C@H](F)[C@H]32)c2cnc(-c3cc(N)cc4ccc(F)c(C#C)c34)c(C)c2n1)[C@@]12CCCN1C[C@H](F)C2 [Example 329, 5-Ethynyl-6-fluoro-4-(4-((1S,7S,8S)-8-fluoro-5-oxa-2-azabicyclo[5.1.0]octan-2-yl)-2-(((2R,7aS)-2-fluorotetrahydro-1H-pyrrolizin-7a(5H)-yl)methoxy-d2)-8-methylpyrido[4,3-d]pyrimidin-7-yl)naphthalen-2-amine]
14 | 0.05 to 0.5 | [2H]C([2H])(Oc1nc(N2CCOC[C@H]3[C@H](F)[C@H]32)c2cnc(-c3cc(O)c(F)c(C)c3C(F)(F)F)c(F)c2n1)[C@@]12CCCN1C[C@H](F)C2 [Example 330, 2-fluoro-5-(8-fluoro-4-((1S,7S,8S)-8-fluoro-5-oxa-2-azabicyclo[5.1.0]octan-2-yl)-2-(((2R,7aS)-2-fluorotetrahydro-1H-pyrrolizin-7a(5H)-yl)methoxy-d2)pyrido[4,3-d]pyrimidin-7-yl)-3-methyl-4-(trifluoromethyl)phenol]
15 | < 0.05 | [2H]C([2H])(Oc1nc(N2CCOC[C@H]3[C@H](F)[C@H]32)c2cnc(-c3cc(N)cc4ccc(C)c(C#C)c34)c(F)c2n1)[C@@]12CCCN1C[C@H](F)C2 [Example 331, 5-Ethynyl-4-(8-fluoro-4-((1S,7S,8S)-8-fluoro-5-oxa-2-azabicyclo[5.1.0]octan-2-yl)-2-(((2R,7aS)-2-fluorotetrahydro-1H-pyrrolizin-7a(5H)-yl)methoxy-d2)pyrido[4,3-d]pyrimidin-7-yl)-6-methylnaphthalen-2-amine]
16 | 0.05 to 0.5 | [2H]C([2H])(Oc1nc(N2CCOC[C@H]3[C@H](F)[C@H]32)c2cnc(-c3cccc4ccc(C(F)(F)F)c(C#C)c34)c(F)c2n1)[C@@]12CCCN1C[C@H](F)C2 [Example 332, (1S,7S,8S)-2-(7-(8-ethynyl-7-(trifluoromethyl)naphthalen-1-yl)-8-fluoro-2-(((2R,7aS)-2-fluorotetrahydro-1H-pyrrolizin-7a(5H)-yl)methoxy-d2)pyrido[4,3-d]pyrimidin-4-yl)-8-fluoro-5-oxa-2-azabicyclo[5.1.0]octane]
17 | < 0.05 | [2H]C([2H])(Oc1nc(N2CCOC[C@H]3[C@H](F)[C@H]32)c2cnc(-c3cc(N)cc4ccc(F)c(C#C)c34)c(F)c2n1)[C@@]12CCCN1[C@H](C)[C@H](F)C2 [Example 333, 5-Ethynyl-6-fluoro-4-(8-fluoro-2-(((2R,3R,7aS)-2-fluoro-3-methyltetrahydro-1H-pyrrolizin-7a(5H)-yl)methoxy-d2)-4-((1S,7S,8S)-8-fluoro-5-oxa-2-azabicyclo[5.1.0]octan-2-yl)pyrido[4,3-d]pyrimidin-7-yl)naphthalen-2-amine]
18 | < 0.05 | [2H]C([2H])(Oc1nc(N2CCOC[C@H]3[C@H](F)[C@H]32)c2cnc(-c3cc(N)cc4ccc(F)c(C#C)c34)c(F)c2n1)[C@@]12CCCN1[C@@H](C)[C@H](F)C2 [Example 334, 5-ethynyl-6-fluoro-4-(8-fluoro-2-(((2R,3S,7aS)-2-fluoro-3-methyltetrahydro-1H-pyrrolizin-7a(5H)-yl)methoxy-d2)-4-((1S,7S,8S)-8-fluoro-5-oxa-2-azabicyclo[5.1.0]octan-2-yl)pyrido[4,3-d]pyrimidin-7-yl)naphthalen-2-amine]
19 | < 0.05 | [2H]C([2H])(Oc1nc(N2CCOC[C@H]3[C@H](F)[C@H]32)c2cnc(-c3cc(O)cc(C)c3C(F)(F)F)c(F)c2n1)[C@@]12CCCN1C[C@H](F)C2 [Example 335, 3-(8-fluoro-4-((1S,7S,8S)-8-fluoro-5-oxa-2-azabicyclo[5.1.0]octan-2-yl)-2-(((2R,7aS)-2-fluorotetrahydro-1H-pyrrolizin-7a(5H)-yl)methoxy-d2)pyrido[4,3-d]pyrimidin-7-yl)-5-methyl-4-(trifluoromethyl)phenol]
